The record followed here is patent publication US5840929A, “C4 methoxy ether derivatives of paclitaxel” (Bristol-Myers Squibb Company, priority 1996, dated 1998).

This assay relates to HCT-116 human colon carcinoma cells. Nature of the assay: In vitro cytotoxicity, XTT assay in HCT-116 human colon carcinoma cells (72 h). The class given is cell-based. The conditions noted are these: for Ratio of IC50 of Compound I over Paclitaxel: HCT-116, ratio to paclitaxel IC50; for IC50: Homo sapiens, HCT-116, XTT, 72 hours, 4000 cells/well, read-out: IC50 HCT-116 (drug concentration required to inhibit cell proliferation to 50% of untreated control cells). How it is done: Cytotoxicity was assessed in HCT-116 human colon carcinoma cells by XTT (2,3-bis(2-methoxy-4-nitro-5-sulfphenyl)-5-[(phenylamino)carbonyl]2H-tetrazolium hydroxide) assay as reported in D. A. Scudiero, et al., "Evaluation of soluble tetrazolium/formazan assay for cell growth and drug sensitivity in culture using human and other tumor cell lines," Cancer Res. 48:4827-4833, 1988. Cells were plated at 4000 cells/well in 96 well microtiter plates and 24 hours later drugs were added and serial diluted. The cells were incubated at 37° C. for 72 hours at which time the tetrazolium dye, XTT, was added. A dehydrogenase enzyme in live cells reduces the XTT to a form that absorbs light at 450 nm which can be quantitated spectrophotometrically. The greater the absorbance, the greater the number of live cells. The results are expressed in Table I as an IC50, which is the drug concentration required to inhibit cell proliferation (i.e., absorbance at 450 nm) to 50% of that of untreated control cells.

Regarding `CO[C@@]12CO[C@@H]1C[C@H](O)[C@@]1(C)C(=O)[C@H](OC(C)=O)C3=C(C)[C@@H](OC(=O)[C@H](O)[C@@H](NC(=O)c4ccccc4)c4ccccc4)C[C@@](O)([C@@H](OC(=O)c4ccccc4)[C@H]21)C3(C)C` [Compound Ia, 4-deacetyloxy-4-methoxypaclitaxel], the “Ratio of IC50 of Compound I over Paclitaxel” value (from here on “Ratio of IC50 of Compound I”) is 21.7 and the IC50 turned out to be 34.7 nM.

Regarding `CO[C@@]12CO[C@@H]1C[C@H](O)[C@@]1(C)C(=O)[C@H](OC(C)=O)C3=C(C)[C@@H](OC(=O)[C@H](O)[C@@H](NC(=O)OC(C)(C)C)c4ccco4)C[C@@](O)([C@@H](OC(=O)c4ccccc4)[C@H]21)C3(C)C` [Compound Ib, 4-deacetyloxy-4-methoxy-3'-desphenyl-3'-(2-furyl)-3'-N-debenzoyl-3'-N-butoxycarbonyl(paclitaxel)], the “Ratio of IC50 of Compound I” value came out at 1.61 and the IC50 turned out to be 3.7 nM.

Consider `CO[C@@]12CO[C@@H]1C[C@H](O)[C@@]1(C)C(=O)[C@H](OC(C)=O)C3=C(C)[C@@H](OC(=O)[C@H](O)[C@@H](NC(=O)OC(C)(C)C)c4ccccc4)C[C@@](O)([C@@H](OC(=O)c4ccccc4)[C@H]21)C3(C)C` [Compound Ic, 4-deacetyloxy-4-methoxy-3'-N-debenzoyl-3'-N-butoxycarbonyl(paclitaxel)], for which the “Ratio of IC50 of Compound I” value is on record as 1.69 and the IC50 was determined as 2.2 nM.

Take `CC(=O)O[C@H]1C(=O)[C@@]2(C)[C@H]([C@H](OC(=O)c3ccccc3)[C@]3(O)C[C@H](OC(=O)[C@H](O)[C@@H](NC(=O)c4ccccc4)c4ccccc4)C(C)=C1C3(C)C)[C@]1(OC(C)=O)CO[C@@H]1C[C@@H]2O` [Paclitaxel, paclitaxel]: the IC50 is 1.3 to 2.3 nM.
